Data: patent publication US5817818A, “Androstenones” (Glaxo Wellcome Inc., priority 1996, dated 1998)
Read-outs that look alike come from different tables or passages of the source.

Columns and labels:
[1] = target: T1, human type 1 5α-reductase (Homo sapiens, UniProt P18405); assay: Inhibition of human type 1 steroid 5α-reductase (microsomes; testosterone to DHT conversion); assay type: biochemical
T1 construct: made in house; host or cells: Sf9 insect cells, recombinant baculovirus; microsomes
T1 sequence (P18405 1-259): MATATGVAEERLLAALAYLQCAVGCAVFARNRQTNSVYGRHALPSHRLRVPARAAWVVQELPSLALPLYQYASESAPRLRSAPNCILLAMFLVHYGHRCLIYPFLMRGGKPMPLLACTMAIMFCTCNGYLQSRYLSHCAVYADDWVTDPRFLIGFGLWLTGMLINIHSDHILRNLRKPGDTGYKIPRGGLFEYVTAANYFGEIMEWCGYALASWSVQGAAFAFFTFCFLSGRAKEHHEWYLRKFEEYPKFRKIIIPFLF
Description: (§1) Enzyme activities may be determined using microsomes derived from: 1) prostate tissue from benign prostatic hyperplasia (BPH) patients; 2) recombinant baculovirus infected SF9 cells that express human type 1 5α-reductase; or 3) recombinant baculovirus infected SF9 cells that express human type 2 5α-reductase. Microsomes were prepared by homogenization of the tissue or cells, followed by differential centrifugation of the homogenate. Microsome extracts were incubated with varying concentrations of [1,2,6,7-^3 H]-testosterone, 1 mM NADPH, and varying amounts of the compounds of formula (I,) i.e. a test compound, in buffer containing a NADPH regenerating system capable of maintaining NADPH concentrations for a period of time within the range 0.5-240 minutes. Corresponding incubations were carried out with no test compound as a control study.
(§2) For type 1 IC50 measurements, assay components except testosterone were preincubated for 10 minutes at pH 7.0, and following the addition of 100 nM testosterone the assays were allowed to proceed for 10-120 minutes. For type 2 IC50 measurements, assay components except testosterone were preincubated for 20 minutes at pH 6.0, and following the addition of 8 nM testosterone the assays were allowed to proceed for 20-40 minutes. The percentage of conversion of testosterone to DHT in the presence of test compounds compared to the corresponding conversion in the control study was estimated using high performance liquid chromatography (HPLC) with radiochemical detection.

[2] = target: T2, human type 2 5α-reductase (Homo sapiens, UniProt P31213); assay: Inhibition of human type 2 steroid 5α-reductase (microsomes; testosterone to DHT conversion); assay type: biochemical; conditions: 20 min preincubation, pH 6.0, 8 nM testosterone, 20-40 min, 1 mM NADPH; read-out: IC50 Human Type 2 5AR
T2 construct: made in house; host or cells: Sf9 insect cells, recombinant baculovirus; microsomes
T2 sequence (P31213 1-254): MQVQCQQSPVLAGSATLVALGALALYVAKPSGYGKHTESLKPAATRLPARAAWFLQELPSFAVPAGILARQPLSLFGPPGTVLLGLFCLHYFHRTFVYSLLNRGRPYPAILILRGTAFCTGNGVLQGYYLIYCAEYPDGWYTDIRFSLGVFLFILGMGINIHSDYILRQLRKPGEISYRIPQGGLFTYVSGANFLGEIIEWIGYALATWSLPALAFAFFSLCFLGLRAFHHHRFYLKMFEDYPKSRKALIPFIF
Description: as §1, §2

Human Adrenal 3BHSD = target: T3, Human Adrenal 3BHSD (Homo sapiens, UniProt P26439); assay: Inhibition of human adrenal 3β-hydroxy-Δ^5-steroid dehydrogenase/3-keto-Δ^5-steroid isomerase (3BHSD) (microsomes; DHEA to androstenedione conversion); assay type: biochemical; conditions: 1 mM NAD+, pH 7.5, 1 to 60 minutes
T3 construct: microsomes derived from human adrenal tissues; from tissue; host or cells: human adrenal tissue, microsomes
T3 sequence (P26439 1-372): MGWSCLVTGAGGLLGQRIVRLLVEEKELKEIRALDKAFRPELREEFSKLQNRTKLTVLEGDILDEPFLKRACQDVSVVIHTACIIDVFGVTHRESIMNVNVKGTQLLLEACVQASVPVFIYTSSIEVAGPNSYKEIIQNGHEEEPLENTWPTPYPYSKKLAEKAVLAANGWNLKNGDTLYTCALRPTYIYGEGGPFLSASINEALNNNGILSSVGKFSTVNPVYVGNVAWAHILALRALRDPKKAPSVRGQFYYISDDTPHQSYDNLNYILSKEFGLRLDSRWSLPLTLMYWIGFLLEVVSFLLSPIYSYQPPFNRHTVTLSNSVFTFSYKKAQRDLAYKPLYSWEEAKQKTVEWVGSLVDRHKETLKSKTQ
Description: Enzyme activities are measured using microsomes derived from human adrenal tissues. Microsomes were prepared by homogenization of the tissue followed by differential centrifugation of the homogenate. Microsome extracts were incubated with varying concentrations of dehydroepiandrosterone (DHEA), 1 mM NAD+, and varying amounts of the compounds of Formula (I), i.e. a test compound, in pH 7.5 buffer for a period of time within the range of 1 to 60 minutes. Corresponding incubations were carried out with no test compound as a control study. The percentage of conversion of DHEA to androstenedione in the presence of test compounds compared to the corresponding conversion in the control study was estimated using HPLC with radiochemical detection.

[3] = tested on: bovine adrenal 3β-hydroxy-Δ^5 -steroid dehydrogenase/3-keto-Δ^5 -steroid isomerase (3BHSD); conditions: cited from earlier work
[4] = tested on: porcine granulosa cell 3β-hydroxy-Δ^5 -steroid dehydrogenase/3-keto-Δ^5 -steroid isomerase (3BHSD); conditions: cited from earlier work
[5] = 10 min preincubation, pH 7.0, 100 nM testosterone, 10-120 min, 1 mM NADPH, read-out: IC50 Human Type 1 5AR

IC50 [1, 5] [nM]	IC50 [2] [nM]	Ki (Human Adrenal 3BHSD) [nM]	Structure (SMILES)	inhibition of bovine adrenal 3BHSD [3]	inhibition of porcine granulosa cell 3BHSD [4]	IC50 [1] [nM]
1 to 10	< 1	> 1000	CC(C)(C)c1ccc(C(F)(F)F)cc1NC(=O)[C@H]1CC[C@H]2[C@@H]3CC[C@H]4NC(=O)CC[C@]4(C)[C@H]3CC[C@]12C [Compound 25, 17β-N-(2-t-Butyl-5-trifluoromethyl)phenylcarbamoyl-4-aza-5α-androstan-3-one]			
1 to 10	< 1	> 1000	CC(C)(C)c1ccc(C(F)(F)F)cc1NC(=O)[C@H]1CC[C@H]2[C@@H]3CC[C@H]4NC(=O)C=C[C@]4(C)[C@H]3CC[C@]12C [Compound 24, 17β-N-(2-t-Butyl-5-trifluoromethyl)phenylcarbamoyl-4-aza-5α-androst-1-en-3-one]			
< 1	< 1	10 to 10000	CN1C(=O)CC[C@]2(C)[C@H]3CC[C@]4(C)[C@@H](C(=O)Nc5cc(C(C)(C)C)ccc5C(C)(C)C)CC[C@H]4[C@@H]3CC[C@@H]12 [Compound 29, 17β-N-(2,5-Di-t-butyl)phenylcarbamoyl-4-methyl-4-aza-5α-androstan-3-one]			
1 to 10	< 1	> 1000	C[C@H]1C[C@H]2NC(=O)C=C[C@]2(C)[C@H]2CC[C@]3(C)[C@@H](C(=O)NC4(c5ccc(Cl)cc5)CCCC4)CC[C@H]3[C@H]12 [Compound 32, 17β-N-1-(4-Chlorophenyl)cyclopentylcarbamoyl-4-aza-7β-methyl-5α-androst-1-en-3-one]			
10 to 10000	< 1	10 to 10000	C[C@]12C=CC(=O)N[C@@H]1CC[C@@H]1[C@@H]2CC[C@]2(C)[C@@H](C(=O)NC3(c4ccc5c(c4)OCO5)CCCCC3)CC[C@@H]12 [Compound 12, 17β-N-1-(3,4-Methylenedioxyphenyl)cyclohexylcarbamoyl-4-aza-5α-androst-1-en-3-one]			

Second part, the compound before the results:

Structure (SMILES)	IC50 [1, 5] [nM]	IC50 [2] [nM]	Ki (Human Adrenal 3BHSD) [nM]	inhibition of bovine adrenal 3BHSD [3]	inhibition of porcine granulosa cell 3BHSD [4]	IC50 [1] [nM]
CC(C)(C)c1ccc(C2(NC(=O)[C@H]3CC[C@H]4[C@@H]5CC[C@H]6NC(=O)C=C[C@]6(C)[C@H]5CC[C@]34C)C3CCCC2CCC3)cc1 (stereo partly drawn) [Compound 33, 17β-N-9-(4-t-Butylphenyl)bicyclo[3.3.1]nonylcarbamoyl-4-aza-5α-androst-1-en-3-one]	1 to 10	< 1	> 1000			
CCC1(CC)CC1(NC(=O)[C@H]1CC[C@H]2[C@@H]3CC[C@H]4NC(=O)C=C[C@]4(C)[C@H]3CC[C@]12C)c1ccc(C(F)(F)F)cc1 (stereo partly drawn) [Compound 16, 17β-N-1-(4-Trifluoromethylphenyl)-2,2-diethylcyclopropylcarbamoyl-4-aza-5α-androst-1-en-3-one]	1 to 10	< 1	> 1000			
C[C@]12C=CC(=O)N[C@@H]1CC[C@@H]1[C@@H]2CC[C@]2(C)[C@@H](C(=O)NC3(c4cccc(C(F)(F)F)c4)CCCC3)CC[C@@H]12 [Compound 19, 17β-N-1-(3-Trifluoromethylphenyl)cyclopentylcarbamoyl-4-aza-5α-androst-1-en-3-one]	1 to 10	< 1	> 1000			
C[C@]12CCC(=O)N[C@@H]1CC[C@@H]1[C@@H]2CC[C@]2(C)[C@@H](C(=O)NC3(c4ccc(Cl)cc4)CCCC3)CC[C@@H]12 [Compound 1, 17β-N-1-(4-Chlorophenyl)cyclopentylcarbamoyl-4-aza-5α-androstan-3-one]	1 to 10	< 1	> 1000			
CCN(CC)C(=O)[C@H]1CC[C@H]2[C@@H]3CC[C@H]4N(C)C(=O)CC[C@]4(C)[C@H]3CC[C@]12C [Compound 4-MA]				potent inhibition	potent inhibition	
COc1ccc(C2(NC(=O)[C@H]3CC[C@H]4[C@@H]5CC[C@H]6NC(=O)C=C[C@]6(C)[C@H]5CC[C@]34C)CCCCC2)cc1 [Compound 11, 17β-N-1-(4-Methoxyphenyl)cyclohexylcarbamoyl-4-aza-5α-androst-1-en-3-one]	1 to 10	< 1	> 1000			
C[C@]12C=CC(=O)N[C@@H]1CC[C@@H]1[C@@H]2CC[C@]2(C)[C@@H](C(=O)NC3(c4ccc(Cl)cc4)CCCC3)CC[C@@H]12 [Compound 3, 17β-N-1-(4-chlorophenyl)cyclopentylcarbamoyl-4-aza-5α-androst-1-en-3-one]		< 1	> 1000			< 1
CC(C)(C)c1ccc(C(C)(C)C)c(NC(=O)[C@H]2CC[C@H]3[C@@H]4CC[C@H]5NC(=O)CC[C@]5(C)[C@H]4CC[C@]23C)c1 [Compound 28, 17β-N-(2,5-Di-t-butyl)phenylcarbamoyl-4-aza-5α-androstan-3-one]	1 to 10	< 1	> 1000			
CC1(C)CCC(NC(=O)[C@H]2CC[C@H]3[C@@H]4CC[C@H]5NC(=O)C=C[C@]5(C)[C@H]4CC[C@]23C)(c2ccc(C(C)(C)C)cc2)CC1 [Compound 17, 17β-N-1-(4-t-Butylphenyl)-4,4-dimethylcyclohexylcarbamoyl-4-aza-5α-androst-1-en-3-one]	< 1	< 1	> 1000			
CC(C)(C)c1ccc(C2(NC(=O)[C@H]3CC[C@H]4[C@@H]5CC[C@H]6NC(=O)C=C[C@]6(C)[C@H]5CC[C@]34C)CCCCC2)cc1 [Compound 5, 17β-N-1-(4-t-Butylphenyl)cyclohexylcarbamoyl-4-aza-5α-androst-1-en-3-one]	1 to 10	< 1	> 1000			
